From patent US20140128352A1, “COMPOUNDS AND METHODS FOR MODULATING MITOCHONDRIAL METABOLISM AND REACTIVE OXYGEN SPECIES PRODUCTION” (Buck Institute for Research on Aging, priority 2012, published 2014)

Columns and labels:
complex I = experiment: Rate of NAD(P)H reduction via complex I versus observed ROS production; type: biochemical, rat; conditions: 2.5 uM; succinate with low glutamate; FIG. 2B
Procedure: To compare candidate IQ ROS inhibitors with mitochondrial inhibitors known to disrupt complex I activity (e.g. rotenone) or oxidize the electron transport chain (e.g. the uncoupler FCCP), the rate of NAD(P)H reduction via complex I was measured when isolated mitochondria were provided with saturating concentrations of the complex II substrate succinate (5 mM) and subsaturating levels of glutamate (1 mM) to facilitate full activation of complex II by oxaloacetate removal. […] These conditions allow electron and proton fluxes through complex Ito reverse and be directed predominantly toward the matrix. Addition of succinate causes a rapid increase in the reduction state of the matrix NAD(P)H pool that can be monitored as described above. The rate of NAD(P)H reduction is therefore a measure of electron flux through complex I for which direct comparisons can be made under identical conditions to effects on rates of ROS production.

site IQ = experiment: ROS production with NADH and cytochrome b566 reduction states, mitochondria respiring on CI substrates; type: biochemical, rat; conditions: 2.5 uM, ATP synthesis restricted
Source text: The contribution of site IQ to total ROS production under “normal” circumstances (e.g. when electrons enter CI primarily in the forward direction) remains contentious. […] A possible explanation for this difference is the leak of electrons from site IQ as both Q-pool reduction and PMF remained high in the absence of energy production. To test if site IQ is indeed active under such conditions, we used Compound No. 4 to non-invasively probe mitochondrial ROS production in this system. […] It is believed that even under extreme conditions in which forward electron flow through CI dominates, this provides evidence that site IQ can be a relevant source of ROS.
The rate of ROS production from site IF is linked to the reduction state of the NAD(P)H pool in the mitochondrial matrix (Treberg et al., 2011; Quinlan et al, submitted). Therefore, to evaluate the mechanism of action of putative IF ROS inhibitors, the effect of candidate compounds on the relationship between site IF ROS production and NAD(P)H reduction was tested. NAD(P)H reduction was monitored in isolated mitochondria (0.3 mg/mL) on a Varian Cary Eclipse fluorimeter (ex 365/em 450 nm) as described by Treberg et al., 2011 except the reduction state was slowly titrated with increasing rotenone (0.08 to 4 uM) in the presence of saturating malate (5 mM) and the uncoupler FCCP. Glutamate (5 mM) was added to achieve 100% reduction. […]

mitochondrial GPDH = target: T1, mitochondrial GPDH (Rattus norvegicus, UniProt P35571); experiment: Mitochondrial GPDH activity (DCPIP reduction); type: biochemical
T1 construct: The activity of GPDH in intact mitochondria (0.3 mg/mL) was measured; from tissue; host or cells: rat skeletal muscle mitochondria (Wistar, Harlan Laboratories)
T1 sequence (P35571 43-727): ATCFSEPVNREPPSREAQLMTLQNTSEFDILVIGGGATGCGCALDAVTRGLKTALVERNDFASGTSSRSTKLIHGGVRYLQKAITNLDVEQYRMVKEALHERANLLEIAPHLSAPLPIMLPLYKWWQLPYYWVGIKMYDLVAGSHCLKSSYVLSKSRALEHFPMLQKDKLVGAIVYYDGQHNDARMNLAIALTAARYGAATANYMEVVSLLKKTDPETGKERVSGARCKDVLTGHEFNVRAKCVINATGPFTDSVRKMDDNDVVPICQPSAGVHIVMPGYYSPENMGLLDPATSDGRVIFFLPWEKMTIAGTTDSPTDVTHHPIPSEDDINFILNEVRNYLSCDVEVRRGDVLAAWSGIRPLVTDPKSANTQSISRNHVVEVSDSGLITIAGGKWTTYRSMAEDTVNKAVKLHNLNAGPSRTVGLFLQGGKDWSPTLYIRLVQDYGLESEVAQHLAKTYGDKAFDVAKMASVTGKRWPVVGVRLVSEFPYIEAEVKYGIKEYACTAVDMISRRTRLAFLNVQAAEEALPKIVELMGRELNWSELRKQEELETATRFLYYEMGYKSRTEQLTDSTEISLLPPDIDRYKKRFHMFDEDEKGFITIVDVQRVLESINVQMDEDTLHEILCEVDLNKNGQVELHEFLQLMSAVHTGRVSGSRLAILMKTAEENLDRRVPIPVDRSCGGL

SMILES: O=[N+]([O-])c1ccc(Oc2ccc(S(=O)(=O)NC3CCCCC3)cc2)cc1 [Compound 4]
- suppression of observed ROS before any sign of altered flux through CI to NADH (complex I): at least 45%
- observed ROS production and NADH / b566 reduction states (site IQ): lowered the observed ROS production without any changes to the NADH or b566 reduction states

SMILES: O=C(O)CCC(=O)Nc1ccc(-c2nc3cc4ccccc4cc3[nH]2)cc1 [Compound 61]
- kinetics of inhibition of GPDH activity (mitochondrial GPDH): mixed inhibition kinetics
- potency at inhibiting GPDH activity relative to Compound No. 46 (mitochondrial GPDH): at least 6 times
